Results reported in the NIST ThermoML archive (doi:10.1016/j.fluid.2017.12.011).
Numbers after ± are expanded uncertainties.

Columns and labels:
[1] = Boiling temperature at pressure P; conditions: Liquid, Ebulliometric method (Recirculating still)
[2] = Liquid, Ebulliometric method (Recirculating still)

Question: With Cc1cccc(C)c1O [2,6-dimethylphenol] as the molecule, how does the “Boiling temperature at pressure P” value ([1]; 6.7 kPa) read?
Answer: 116.91 ± 0.54 °C

Question: What about the “Boiling temperature at pressure P” value ([1]; 8.87 kPa) of the same molecule?
Answer: 122.99 ± 0.52 °C

Question: What about the “Boiling temperature at pressure P” value ([1]; 10.89 kPa) of the same molecule?
Answer: 128.28 ± 0.47 °C

Question: What about the “Boiling temperature at pressure P” value ([1]; 12.74 kPa) of the same molecule?
Answer: 132.49 ± 0.41 °C

Question: And the “Boiling temperature at pressure P” value ([1]; 14.98 kPa)?
Answer: 136.82 ± 0.37 °C

Question: What about the “Boiling temperature at pressure P” value ([1]; 16.8 kPa) of the same molecule?
Answer: 140.18 ± 0.34 °C

Question: What about the “Boiling temperature at pressure P” value ([1]; 18.91 kPa) of the same molecule?
Answer: 143.50 ± 0.3 °C

Question: And the “Boiling temperature at pressure P” value ([1]; 20 kPa)?
Answer: 144.96 ± 0.27 °C

Question: What about the “Boiling temperature at pressure P” value ([1]; 21.02 kPa) of the same molecule?
Answer: 146.28 ± 0.28 °C

Question: What about the “Boiling temperature at pressure P” value ([1]; 22.83 kPa) of the same molecule?
Answer: 148.86 ± 0.29 °C

Question: What about the “Boiling temperature at pressure P” value ([1]; 33.02 kPa) of the same molecule?
Answer: 163.40 ± 0.28 °C

Question: What about the “Boiling temperature at pressure P” value ([1]; 35.64 kPa) of the same molecule?
Answer: 165.8 ± 0.2 °C

Question: And the “vapor or sublimation pressure” value ([2]; 418.11 K)?
Answer: 20 ± 0.2 kPa

Question: What does the source list for Cc1ccccc1O [2-methylphenol]?
Answer: Boiling temperature at pressure P ([1]; 20 kPa): 138.11 ± 0.17 °C; vapor or sublimation pressure ([2]; 411.26 K): 20 ± 0.2 kPa

Question: What does the source list for Cc1cccc(O)c1 [3-methylphenol]?
Answer: Boiling temperature at pressure P ([1]; 9.29 kPa): 129.09 ± 0.46 °C; Boiling temperature at pressure P ([1]; 11.93 kPa): 135.40 ± 0.41 °C; Boiling temperature at pressure P ([1]; 14.57 kPa): 140.24 ± 0.37 °C; Boiling temperature at pressure P ([1]; 16.68 kPa): 144.32 ± 0.34 °C; Boiling temperature at pressure P ([1]; 18.79 kPa): 147.39 ± 0.29 °C; Boiling temperature at pressure P ([1]; 20 kPa): 149.01 ± 0.29 °C; Boiling temperature at pressure P ([1]; 20.91 kPa): 150.40 ± 0.26 °C; Boiling temperature at pressure P ([1]; 23.02 kPa): 152.89 ± 0.25 °C; Boiling temperature at pressure P ([1]; 25.13 kPa): 155.41 ± 0.25 °C; vapor or sublimation pressure ([2]; 422.16 K): 20 ± 0.2 kPa; vapor or sublimation pressure ([2]; 422.28 K): 20 ± 0.2 kPa
